Measured values reported in US8871681B2, “Herbicidal compositions comprising 4-amino-3-chloro-5-fluoro-6-(4-chloro-2-fluoro-3-methoxyphenyl) pyridine-2-carboxylic acid or a derivative thereof and certain sulfonylureas” (Dow AgroSciences LLC, priority 2012, dated 2014).

Assays:
[1] = test system: CYPRO (Cyperus rotundus, purple nutsedge); assay: In-water applied weed control, transplanted paddy rice, greenhouse (Example II); assay type: in vivo, Cyperus rotundus L.
Description: Weed seeds or nutlets of the desired test plant species were planted in puddled soil (mud) prepared by mixing a shredded, non-sterilized mineral soil (50.5 percent silt, 25.5 percent clay, and 24 percent sand, with a pH of about 7.6 and an organic matter content of about 2.9 percent) and water at a 1:1 volumetric ratio. The prepared mud was dispensed in 365 mL aliquots into 16-ounce (oz.) non-perforated plastic pots with a surface area of 86.59 square centimeters (cm^2) leaving a headspace of 3 centimeters (cm) in each pot. Rice seeds were planted in Sun Gro MetroMix® 306 planting mixture, which typically has a pH of 6.0 to 6.8 and an organic matter content of about 30 percent, in plastic plug trays. Seedlings at the second or third leaf stage of growth were transplanted into 860 mL of mud contained in 32-oz. non-perforated plastic pots with a surface area of 86.59 cm^2 4 days prior to herbicide application. The paddy was created by filling the headspace of the pots with 2.5 to 3 cm of water. When required to ensure good germination and healthy plants, a fungicide treatment and/or other chemical or physical treatment was applied. The plants were grown for 4-22 days in a greenhouse with an approximate 14 h photoperiod which was maintained at about 29′C during the day and 26° C. during the night. Nutrients were added as Osmocote® (19:6:12, N:P:K+minor nutrients) at 2 g per 16-oz. pot and 4 g per 32-oz. pot. Water was added on a regular basis to maintain the paddy flood, and supplemental lighting was provided with overhead metal halide 1000-Watt lamps as necessary. The plants were employed for testing when they reached the first through fourth true leaf stage.
Treatments consisted of the acid or esters of 4-amino-3-chloro-5-fluoro-6-(4-chloro-2-fluoro-3-methoxy-phenyl)pyridine-2-carboxylic acid (compound A) each formulated as an SC and various herbicidal components alone and in combination. Forms of compound A were applied on an acid equivalent basis.
Other herbicidal components were applied on an active ingredient basis and included acetolactate synthase (ALS)-inhibiting herbicides (sulfonylurea chemical class), azimsulfuron formulated as Gulliver®, bensulfuron-methyl formulated as Londax® 60DF, cyclosulfamuron (technical grade materail), ethoxysulfuron formulated as Sunrice® 15 WDG, flucetosulfuron formulated as Sukedachi® 1KG G, imazosulfuron formulated as Brazzos®, metsulfuron-methyl formulated as Lorate®, nicosulfuron formulated as Accent®, orthosulfamuron formulated as Strada® WG, propyrisulfuron formulated as Zeta One®, and rimsulfuron formulated as Matrix® WG.
Treatment requirements for each compound or herbicidal component were calculated based upon the rates being tested, the concentration of active ingredient or acid equivalent in the formulation, an application volume of 2 mL per component per pot, and an application area of 86.59 cm^2 per pot.
For formulated compounds, a measured amount was placed in an individual 100 or 200 mL glass vial and was dissolved in a volume of 1.25% (v/v) Agri-Dex® crop oil concentrate to obtain application solutions.
For technical grade compounds, a weighed amount was placed in an individual 100 to 200 mL glass vial and was dissolved in a volume of acetone to obtain concentrated stock solutions. […] The concentrated stock solutions obtained were diluted with an equivalent volume of an aqueous mixture containing 2.5% (v/v) crop oil concentrate so that the final application solutions contained 1.25% (v/v) crop oil concentrate.
Applications were made by injecting with a pipetter appropriate amounts of the application solutions, individually and sequentially, into the aqueous layer of the paddy. Control plants were treated in the same manner with the solvent blank. Applications were made so that all treated plant material received the same concentrations of acetone and crop oil concentrate. […]

[2] = test system: SIDSP (Sida spinosa, prickly sida); assay: Post-emergence herbicidal activity of mixtures in forage crops, greenhouse (Example IV); assay type: in vivo, Sida spinosa L.; conditions: Table 58 (forage), foliar-applied, after approximately 21 days
Description: (§1) Seeds or root cuttings of the desired test plant species were planted in Sun Gro MetroMix® 306 planting mixture, which typically has a pH of 6.0 to 6.8 and an organic matter content of about 30 percent, in plastic pots with a surface area of 126.6 square centimeters (cm^2). When required to ensure good germination and healthy plants, a fungicide treatment and/or other chemical or physical treatment was applied. The plants were grown for 14-60 days in a greenhouse with an approximate 14 hour photoperiod which was maintained at approximately 28° C. during the day and 24° C. during the night. Nutrients and water were added on a regular basis and supplemental lighting was provided with overhead metal halide 1000-Watt lamps as necessary. The plants were employed for testing when they reached the BBCH13 to BBCH23 leaf stage.
(§2) Treatments consisted of the benzyl ester of 4-amino-3-chloro-5-fluoro-6-(4-chloro-2-fluoro-3-methoxy-phenyl)pyridine-2-carboxylic acid (Compound A), formulated as a SC, and a second herbicide alone and in combination.
(§3) A measured aliquot of Compound A was placed in 25 milliliter (mL) glass vial and diluted in a volume of 1.25% (v/v) Agri-dex crop oil concentrated to obtain stock solutions. Compound requirements are based upon a 12 mL application volume at a rate of 187 liters per hectare (L/ha). Spray solutions of the second cereal herbicide and experimental compound mixtures were prepared by adding the stock solutions to the appropriate amount of dilution solution to form 12 mL spray solution with active ingredients in two- and three-way combinations. […]
(§4) The treated plants and control plants were placed in a greenhouse as described above and watered by sub-irrigation to prevent wash-off of the test compounds. After approximately 21 days, the condition of the test plants, as compared with that of the control plants, was determined visually and scored on a scale of 0 to 100 percent where 0 corresponds to no injury and 100 corresponds to complete kill. […]

[3] = test system: POROL (Portulaca oleracea, portulaca); assay: as above; assay type: in vivo, Portulaca oleracea L.; conditions: Table 58 (forage), foliar-applied, after approximately 21 days
Description: as §1, §2, §3, §4

| SMILES | Visual Weed Control (%) - 20 DAA CYPRO Obs ([1]; Table 43, 10.6 gae/ha alone) [%] | Visual Weed Control (%) - 20 DAA CYPRO Obs ([1]; Table 43, 21.2 gae/ha alone) [%] | Visual Weed Control (%) - 20 DAA CYPRO Obs ([1]; Table 49, 10.6 gae/ha alone) [%] | Visual Weed Control (%) - 20 DAA CYPRO Obs ([1]; Table 49, 21.2 gae/ha alone) [%] | Visual Weed Control (%) - 20 DAA CYPRO Obs ([1]; Table 49, 42.4 gae/ha alone) [%] | Weed Control SIDSP Obs ([2]; 2.2 gai/ha alone) [%] | Weed Control SIDSP Obs ([2]; 4.4 gai/ha alone) [%] | Weed Control POROL Obs ([3]; 2.2 gai/ha alone) [%] | Weed Control POROL Obs ([3]; 4.4 gai/ha alone) [%] | Visual Weed Control (%) - 20 DAA CYPRO Obs ([1]; Table 50, 4.38 gae/ha alone) [%] | Visual Weed Control (%) - 20 DAA CYPRO Obs ([1]; Table 50, 8.75 gae/ha alone) [%] | Visual Weed Control (%) - 20 DAA CYPRO Obs ([1]; Table 50, 17.5 gae/ha alone) [%] |
| --- | --- | --- | --- | --- | --- | --- | --- | --- | --- | --- | --- | --- |
| COc1c(Cl)ccc(-c2nc(C(=O)O)c(Cl)c(N)c2F)c1F [Compound A Acid, 4-amino-3-chloro-5-fluoro-6-(4-chloro-2-fluoro-3-methoxy-phenyl)pyridine-2-carboxylic acid] | 10 | 20 | 10 | 20 | 95 | – | – | – | – | – | – | – |
| COc1c(Cl)ccc(-c2nc(C(=O)OCc3ccccc3)c(Cl)c(N)c2F)c1F [Compound A Benzyl Ester] | – | – | – | – | – | 77 | 85 | 47 | 60 | 50 | 0 | 90 |
